The text below walks through data of ChEMBL document CHEMBL1134369, “Inhibition of heme detoxification processes underlies the antimalarial activity of terpene isonitrile compounds from marine sponges” (J Med Chem, 2001).

The subject of this assay is Plasmodium falciparum. Description: Antiplasmodial activity against Plasmodium falciparum D6. In kind it is functional, organism-based.

As a reminder, the IC50 is the concentration at which inhibition is half-maximal. Low readings indicate greater potency, high ones weaker potency. With `[C-]#[N+][C@@]1(C)CC[C@H]2[C@H]3[C@@H](C(=C)CC[C@@H]31)[C@@H](C=C(C)C)C[C@@H]2C`, 0.0474 µM corresponded to half-maximal inhibition (IC50).

Take `[C-]#[N+][C@@]1(C)CC[C@H]2[C@H]3[C@@H](C(=C)CC[C@@H]31)[C@H](CC(=C)C)C[C@@H]2C`: the half-maximal inhibitory concentration (IC50) was found to be 1.75 µM.

Take `[C-]#[N+][C@@]1(C)CC[C@H]2[C@H]3[C@@H]4[C@H](C[C@@H](C)[C@@](C)(N=C=O)[C@H]4CC[C@@H]31)C[C@@H]2C`: the IC50 is 0.0094 µM.

Turning to `[C-]#[N+][C@@]1(C)CC[C@H]2[C@H]3C(=C(C)CC[C@@H]31)[C@@H](C=C(C)C)C[C@@H]2C`, half-maximal inhibition (IC50) was put at 0.197 µM.

`[C-]#[N+][C@]1(C)[C@H](C)C[C@@H]2C[C@H](C)[C@H]3CC[C@](C)(N=C=S)[C@H]4CC[C@H]1[C@@H]2[C@H]34` showed an IC50 of 0.126 µM.

With `C=C[C@H]1C[C@H](C)[C@H]2CC[C@](C)(N=C=S)[C@H]3CCC(=C)[C@]1(O)[C@H]23`, it took 2.31 µM to reach half-maximal inhibition (IC50).

For `[C-]#[N+][C@@]1(C)CC[C@H]2[C@@H]3[C@@H]1CC[C@@H](C)[C@]3(/C=C/C(=C)C)C[C@@H]2C`, the IC50 worked out at 0.289 µM.

For `[C-]#[N+][C@@]1(C)CC[C@H]2[C@H]3[C@@H](C(C)=CC[C@@H]31)[C@H](C=C(C)C)C[C@@H]2C`, inhibition was half-maximal at 1.02 µM (IC50).

Turning to `CC(C)=CCC[C@@H](C)[C@H]1CC[C@](C)(N=C=S)[C@H]2CCC(C)=C[C@H]12`, the IC50 was over 30.2 µM.

In turn, `[C-]#[N+][C@@]1(C)CC[C@H]2[C@H]3[C@H]4C(=CC(C)(C)C[C@@H]4C[C@@H]2C)CC[C@@H]31` had an IC50 of 0.249 µM.

For the compound `[C-]#[N+][C@@]1(C)CC[C@H]2[C@H]3[C@H]4C(=CC[C@@H]31)CC(C)(C)C[C@@H]4C[C@@H]2C`, the half-maximal inhibitory concentration (IC50) stood at 0.285 µM.

`[C-]#[N+][C@@]1(C)CC[C@H]2[C@H]3[C@@H](C(=C)CC[C@@H]31)[C@H](CC(C)(C)N=C=S)C[C@@H]2C` returned an IC50 of 1.32 µM.

`[C-]#[N+][C@]1(C)[C@H](C)C[C@@H]2C[C@H](C)[C@H]3CC[C@](C)([N+]#[C-])[C@H]4CC[C@H]1[C@@H]2[C@H]34` [DIISOCYANOADOCIANE] registered an IC50 of 0.0145 µM.

The compound `[C-]#[N+][C@@]1(C)CC[C@H]2[C@H]3[C@H]4[C@H](CC[C@@H]31)[C@H](C)C(C)=C[C@@H]4C[C@@H]2C` gave an IC50 of 0.21 µM.

For `[C-]#[N+][C@]1(C)[C@H](C)C[C@@H]2C[C@H](C)[C@H]3CC[C@](C)(N=C=O)[C@H]4CC[C@H]1[C@@H]2[C@H]34`, inhibition was half-maximal at 0.22 µM (IC50).
